Laboratory results as given in US20160235069A1, “N-ACRYLIMINO HETEROCYCLIC COMPOUNDS” (BASF SE, priority 2013, published 2016).
Where two headings read alike, the source gives them in different places.

Tests used:
Format in all cases: in vivo
Myzus persicae = experiment: Green peach aphid (Myzus persicae), systemic, artificial diet in 96-well plates; conditions: 72 h, read-out: mortality in comparison with untreated controls
Excerpt: General conditions: If not otherwise specified, most test solutions are to be prepared as follows: The active compound is to be dissolved at the desired concentration in a mixture of 1:1 (vol:vol) distilled water:acteon. Further, the test solutions are to be prepared at the day of use (and, if not otherwise specified, in general at concentrations wt/vol).
For evaluating control of green peach aphid (Myzus persicae) through systemic means, the test unit consists of 96-well-microtiter plates containing liquid artificial diet under an artificial membrane.
The compounds are formulated using a solution containing 75% v/v water and 25% v/v DMSO. Different concentrations of formulated compounds are pipetted into the aphid diet, using a custom built pipetter, at two replications.
After application, 5-8 adult aphids are placed on the artificial membrane inside the microtiter plate wells. The aphids are then allowed to suck on the treated aphid diet and incubated at about 23+1° C. and about 50+5% relative humidity for 3 days. Aphid mortality and fecundity is then visually assessed.

Megoura viciae = experiment: Vetch aphid (Megoura viciae), contact or systemic, broad bean leaf disks; conditions: foliar, 120 h, read-out: mortality in comparison with untreated controls
Method: For evaluating control of vetch aphid (Megoura viciae) through contact or systemic means the test unit consisted of 24-well-microtiter plates containing broad bean leaf disks.
The compounds were formulated using a solution containing 75% v/v water and 25% v/v DMSO. Different concentrations of formulated compounds were sprayed onto the leaf disks at 2.5 μl, using a custom built micro atomizer, at two replications.
After application, the leaf disks were air-dried and 5-8 adult aphids were placed on the leaf disks inside the microtiter plate wells. The aphids were then allowed to suck on the treated leaf disks and were incubated at about 23±1° C. and about 50±5% relative humidity for 5 days. Aphid mortality and fecundity was then visually assessed.

Aphis gossypii = experiment: Cotton aphid (Aphis gossypii), sprayed potted plants; conditions: 72 h, read-out: mortality in comparison with untreated controls
Aphis craccivora = experiment: Cowpea aphid (Aphis craccivora), sprayed potted cowpea plants; conditions: 72 h, read-out: mortality in comparison with untreated controls
Method: The active compound is dissolved at the desired concentration in a mixture of 1:1 (vol:vol) distilled water: acetone. Surfactant (Alkamuls® EL 620) is added at a rate of 0.1% (vol/vol). The test solution is prepared at the day of use.
Potted cowpea plants are colonized with approximately 50-100 aphids of various stages by manually transferring a leaf tissue cut from infested plant 24 hours before application. Plants are sprayed after the pest population has been recorded. Treated plants are maintained on light carts at about 28° C. Percent mortality is assessed after 72 hours.

Dichromothrips corbetti = experiment: Orchid thrips (Dichromothrips corbetti), floral-immersion technique; conditions: 72 h, read-out: mortality in comparison with untreated controls
Method: Dichromothrips corbetti adults used for bioassay are obtained from a colony maintained continuously under laboratory conditions. For testing purposes, the test compound is diluted in a 1:1 mixture of acetone:water (vol:vol), plus 0.01% vol/vol Alkamuls® EL 620 surfactant.
Thrips potency of each compound is evaluated by using a floral-immersion technique. Plastic petri dishes are used as test arenas. All petals of individual, intact orchid flowers are dipped into treatment solution and allowed to dry. Treated flowers are placed into individual petri dishes along with about 20 adult thrips. The petri dishes are then covered with lids. All test arenas are held under continuous light and a temperature of about 28° C. for duration of the assay. After 3 days, the numbers of live thrips are counted on each flower, and along inner walls of each petri dish. The percent mortality is recorded 72 hours after treatment.

Nephotettix virescens = experiment: Rice green leafhopper (Nephotettix virescens), sprayed rice seedlings; conditions: read-out: mortality in comparison with untreated controls
Method: (§1) Rice seedlings are cleaned and washed 24 hours before spraying. The active compounds are formulated in 50:50 acetone:water (vol:vol), and 0.1% vol/vol surfactant (EL 620) is added. Potted rice seedlings are sprayed with 5 ml test solution, air dried, placed in cages and inoculated with 10 adults. Treated rice plants are kept at about 28-29° C. and relative humidity of about 50-60%. Percent mortality is recorded after 72 hours.

Nilaparvata lugens = experiment: Rice brown plant hopper (Nilaparvata lugens), sprayed rice seedlings; conditions: 72 h, read-out: mortality in comparison with untreated controls
Method: as §1, with “compounds is” for “compounds are”, “acetone:water (vol:vol)” for “acetone:water (vol:vol),”, “620) was” for “620) is”

Anthonomus grandis = experiment: Boll weevil (Anthonomus grandis), insect diet with eggs in 96-well plates; conditions: 120 h, read-out: mortality in comparison with untreated controls
Method: For evaluating control of boll weevil (Anthonomus grandis) the test unit consisted of 96-well-microtiter plates containing an insect diet and 5-10 A. grandis eggs.
The compounds were formulated using a solution containing 75% v/v water and 25% v/v DMSO. Different concentrations of formulated compounds were sprayed onto the insect diet at 5 μl, using a custom built micro atomizer, at two replications.
After application, microtiter plates were incubated at about 25±1° C. and about 75±5% relative humidity for 5 days. Egg and larval mortality was then visually assessed.

Plutella xylostella = experiment: Diamond back moth (Plutella xylostella), dipped cabbage leaves; conditions: 3rd instar larvae on dipped cabbage leaves, 72 hours after treatment, read-out: mortality in comparison with untreated controls
Method: The active compound is dissolved at the desired concentration in a mixture of 1:1 (vol:vol) distilled water: acetone. Surfactant (Kinetic HV) is added at a rate of 0.01% (vol/vol). The test solution is prepared at the day of use.
Leaves of cabbage were dipped in test solution and air-dried. Treated leaves were placed in petri dishes lined with moist filter paper and inoculated with ten 3rd instar larvae. Mortality was recorded 72 hours after treatment. Feeding damages were also recorded using a scale of 0-100%.

C=C(F)C(=O)/N=c1\ccccn1Cc1ccc(Cl)nc1 [Compound E1.3]
≥ 75%: mortality at 2500 ppm (Myzus persicae) | mortality at 2500 ppm (Megoura viciae) | mortality at 500 ppm (Aphis gossypii) | mortality at 500 ppm (Aphis craccivora) | mortality at 500 ppm (Dichromothrips corbetti) | mortality at 500 ppm (Nephotettix virescens; 72 h) | mortality at 500 ppm (Nilaparvata lugens)

CC(C)(C)C/C=C(\C#N)C(=O)/N=c1\ccccn1Cc1ccc(Cl)nc1 [Compound E1.28]
≥ 75%: mortality at 2500 ppm (Myzus persicae) | mortality at 2500 ppm (Megoura viciae) | mortality at 500 ppm (Aphis craccivora) | mortality at 2500 ppm (Anthonomus grandis)

C=C(F)C(=O)/N=c1\ccccn1Cc1cnn(C)c1 [Compound E1.16]
≥ 75%: mortality at 2500 ppm (Myzus persicae; 2500 ppm, adult aphids on treated diet, 3 days) | mortality at 2500 ppm (Megoura viciae; 2500 ppm, adult aphids on sprayed leaf disks, 5 days) | mortality at 500 ppm (Nephotettix virescens; 500 ppm, adults on sprayed rice seedlings, after 72 hours) | mortality at 500 ppm (Plutella xylostella)
